From publication PMC2219390 (The Journal of General Physiology, 1996)
Where “and” joins values, the source holds several entries; their conditions need not be identical. Equal values may be shown once. Read-outs that look alike come from different tables or passages of the source.

Tests used:
[1] = tested on: rat brain voltage-dependent sodium channels (BTX-modified); assay type: biochemical
[2] = Fraction of uncharged molecules at pH 7.4; assay type: physicochemical
[3] = Fig. 5 A, one channel, +60 mV, low-Kd period

Row | SMILES | Measured FO2 (fractional time in the high affinity conformation) ([1]; 0.4 mM QX-314, +60 mV, six channels, 3.66 h) | Measured FO2 (fractional time in the high affinity conformation) ([1]; 3.0 mM QX-314, +60 mV, two channels, 4.32 h) | block of the small subconductance channel state (~6 pS) ([1]; 30 mM lidocaine (0.2 M NaCl) or 0.4 mM QX-314 (0.5 M NaCl), Fig. 7) | koff (amplitude distribution, beta function fit) [1, 3] [s⁻¹] | kon (amplitude distribution, beta function fit) [1, 3] [M⁻¹ s⁻¹] | koff ([1]; Table I A, symmetrical 0.5 M NaCl, 160mV as printed, channels a, b, c) | kon rate relative to lidocaine ([1]; low-Kd period, Table I part B) | uncharged molecules [2]
1 | CC[N+](CC)(CC)CC(=O)Nc1c(C)cccc1C [QX-314, lidocaine N-ethyl] | 0.655 | 0.983 | did not block | 238 | 896000 | 238 s⁻¹ and 253 s⁻¹ and 291 s⁻¹ and 256 s⁻¹ | about six times lower | 
2 | CCN(CC)CC(=O)Nc1c(C)cccc1C [lidocaine] |  |  |  |  |  |  |  | ~ 14%
